# Test system: L. major lysate proteins
# Assay: Multitargeted bead mixture chemoproteomics, single concentration competition, proteome-wide
# Assay type: binding
# Settings: for fold change: vehicle control = 1
structure (smiles),measurement,setting,value
"Nc1nc2[nH]cc(CCc3ccc(C(=O)N[C@@H](CCC(=O)O)C(=O)O)cc3)c2c(=O)[nH]1 [PTX, pemetrexed]",fold change vs vehicle control,"protein LMJF.28.0110 […] 3 SUBUNIT, PUTATIVE",0.95
same,fold change vs vehicle control,"protein LMJF.28.0490 PROPIONYL-COA C[…] CHAIN, PUTATIVE",1.09
same,fold change,"protein LMJF.28.0710 HY[…], CONSERVED (SNARE associated Golgi protein, putative)",0.8
same,fold change vs vehicle control,"protein LMJF.28.0930 HY[…], CONSERVED",0.96
same,fold change vs vehicle control,protein LMJF.28.0960 40S RIBOSOMAL PROTEIN S14,1.01
same,fold change vs vehicle control,"protein LMJF.28.1530 ATP DEPENDENT DEAD-BOX HELICASE, PUTATIVE",0.81
same,fold change relative to vehicle control,"protein LMJF.28.1730, […]-ATP-ASE SUBUNIT 2, PUTATIVE",1.01
same,fold change vs vehicle control,"protein LMJF.28.2430 VACUOLAR ATP SYNTHASE SUBUNIT B, PUTATIVE",0.95
same,fold change relative to vehicle control,"protein LMJF.28.2770, HEAT-SHOCK PROTEIN HSP70, PUTATIVE",1.13
same,fold change,"protein LMJF.28.2910 GLUTAMATE DEHYDROGENASE, PUTATIVE",0.86
same,fold change vs vehicle control,"protein LMJF.29.0120 […]-ATPASE SUBUNIT, PUTATIVE",0.92
same,fold change,"protein LMJF.29.0620 ATP-BINDING CASSETTE PROTEIN SUBFAMILY A, MEMBER 10, PUTATIVE",0.73
same,fold change relative to vehicle control,"protein LMJF.29.0850, HIGH MOBILITY GROUP PROTEIN HOMOLOG TDP-1, PUTATIVE",1.14
same,fold change vs vehicle control,"protein LMJF.29.0940 HY[…], CONSERVED",1
same,fold change vs vehicle control,protein LMJF.29.1160 TRYPAREDOXIN,0.85
same,fold change vs vehicle control,"protein LMJF.29.1240 HY[…], UNKNOWN FUNCTION",0.95
same,fold change vs vehicle control,protein LMJF.29.1270 100 kDa heat shock protein (Hsp100),0.95
same,fold change vs vehicle control,"protein LMJF.29.1310 CARNITINE/CHOLINE ACETYLTRANSFERASE, PUTATIVE",0.97
same,fold change relative to vehicle control,"protein LMJF.29.1760, PAR[…] PROTEIN 1D, PUTATIVE",1.4
same,fold change vs vehicle control,"protein LMJF.29.1780 D[…] PROTEIN, PUTATIVE",0.9
same,fold change,"protein LMJF.29.2200 GTP-BINDING PROTEIN, PUTATIVE (dynamin-1-like protein)",0.98
same,fold change,protein LMJF.29.2310 ENOYL-COA HYDRATASE/ISOMERASE-LIKE PROTEIN,0.93
same,fold change vs vehicle control,"protein LMJF.29.2360 ASPARTYL AMINOPEPTIDASE, PUTATIVE,METALLO-PEPTIDASE, CLAN MH, FAMILY M20",0.84
same,fold change,protein LMJF.29.2860 40S RIBOSOMAL PROTEIN S19-LIKE PROTEIN,1.11
same,fold change,"protein LMJF.30.0580 HY[…], CONSERVED (AMP-binding enzyme, putative)",0.77
same,fold change,"protein LMJF.30.0850 SURFACE PROTEIN AMASTIN, PUTATIVE",0.89
same,fold change vs vehicle control,"protein LMJF.30.1250 PYRIDOXAL KINASE, PUTATIVE",1.01
same,fold change relative to vehicle control,"protein LMJF.30.3090, HY[…], CONSERVED (RNA-binding protein 42, putative)",1.14
same,fold change vs vehicle control,"protein LMJF.30.3240 GLUTAMYL-TRNA SYNTHETASE, PUTATIVE",1.09
same,fold change,"protein LMJF.30.3430 HY[…], CONSERVED (protein mkt1, putative)",0.97
same,fold change,protein LMJF.30.3520 S-ADENOSYL[…],0.85
same,fold change,"protein LMJF.30.3570 ZINC FINGER-DOMAIN PROTEIN, PUTATIVE",0.7
same,fold change relative to vehicle control,"protein LMJF.31.0080, HY[…], CONSERVED",1.19
same,fold change vs vehicle control,"protein LMJF.31.0340 AMINO ACID PERMEASE, PUTATIVE",0.93
same,fold change,"protein LMJF.31.1130 N-ACYL-L-AMINO ACID AMIDOHYDROLASE, PUTATIVE",0.96
same,fold change vs vehicle control,protein LMJF.31.1640 THIOLASE PROTEIN-LIKE PROTEIN,0.95
same,fold change relative to vehicle control,"protein LMJF.31.2150, PROSTAGLANDIN F2-ALPHA SYNTHASE/D-ARABINOSE DEHYDROGENASE",0.94
same,fold change vs vehicle control,"protein LMJF.31.2250 3,2-TRANS-ENOYL-COA ISOMERASE, MIT[…], PUTATIVE",0.92
same,fold change vs vehicle control,"protein LMJF.32.0750 RNA BINDING PROTEIN, PUTATIVE",1.04
same,fold change vs vehicle control,"protein LMJF.32.1060 DYNEIN, PUTATIVE",0.94
same,fold change relative to vehicle control,"protein LMJF.32.1820, IRON SUPEROXIDE DISMUTASE, PUTATIVE",1.02
same,fold change relative to vehicle control,"protein LMJF.32.2320, C-14 STEROL REDUCTASE, PUTATIVE",1.11
same,fold change vs vehicle control,protein LMJF.32.3870 MYOSIN XXI,0.93
same,fold change relative to vehicle control,"protein LMJF.33.0240, THIOL-DEPENDENT REDUCTASE 1",1.12
same,fold change,"protein LMJF.33.0280 HY[…], CONSERVED",1.02
same,fold change relative to vehicle control,"protein LMJF.33.0890, HY[…], CONSERVED",0.88
same,fold change vs vehicle control,"protein LMJF.33.1070 HY[…], UNKNOWN FUNCTION",1.02
same,fold change vs vehicle control,"protein LMJF.33.1330 CYSTEINE CONJUGATE BETA-LYASE, AMINOTRANSFERASE- LIKE PROTEIN",0.74
same,fold change,"protein LMJF.33.1590 HY[…], CONSERVED (3-ketoacyl-CoA reductase, putative)",1.36
same,fold change relative to vehicle control,"protein LMJF.33.1860, ATP-BINDING CASSETTE PROTEIN SUBFAMILY D, MEMBER 3, PUTATIVE",1.27
same,fold change relative to vehicle control,"protein LMJF.33.2340, SUCCINYL-COA:3-KETOACID-COENZYME A TRANSFERASE, MIT[…], PUTATIVE",1.06
same,fold change relative to vehicle control,"protein LMJF.33.2440, HY[…], CONSERVED",1.15
same,fold change relative to vehicle control,"protein LMJF.33.2540, CARBOXYPEPTIDASE, PUTATIVE,METALLO-PEPTIDASE, CLAN MA(E), FAMILY M32",1.24
same,fold change,"protein LMJF.33.3150 40S RIBOSOMAL PROTEIN S13, PUTATIVE",1.05
same,fold change relative to vehicle control,"protein LMJF.34.0140, MALATE DEHYDROGENASE",1.48
same,fold change vs vehicle control,protein LMJF.34.0440 RIBOSOMAL PROTEIN S25,1.12
same,fold change relative to vehicle control,"protein LMJF.34.2580, HY[…], CONSERVED (ALBA-domain protein 3)",1.03
same,fold change relative to vehicle control,"protein LMJF.34.3250, PUTATIVE PYRUVATE/INDOLE-PYRUVATE CARBOXYLASE, PUTATIVE",1.01
same,fold change,"protein LMJF.34.4370 20S […] 7 SUBUNIT, (PUTATIVE)",0.96
same,fold change vs vehicle control,"protein LMJF.34.4620 HY[…], CONSERVED",0.95
same,fold change,"protein LMJF.35.0070 PROHIBITIN, PUTATIVE",0.97
same,fold change vs vehicle control,"protein LMJF.35.0360 ENOYL-COA HYDRATASE/ISOMERASE FAMILY PROTEIN, CONSERVED",1.16
same,fold change,"protein LMJF.35.0370 ATP-DEPENDENT DEAD-BOX RNA HELICASE, PUTATIVE",0.95
same,fold change,"protein LMJF.35.0420 40S RIBOSOMAL PROTEIN S3A, PUTATIVE",1.12
same,fold change relative to vehicle control,"protein LMJF.35.1220, SHORT CHAIN DEHYDROGENASE, PUTATIVE",1.02

# Source: article PMC6199744, “Development of Chemical Proteomics for the Folateome and Analysis of the Kinetoplastid Folateome” (ACS Infectious Diseases, 2018)
